Structures can show the parent of a compound that is named as a salt.
How the values were obtained:
MEIS1 mRNA = MEIS1 mRNA expression assay (Quantigene Singleplex) in MOLM14 cells; assay type: cell-based, human; conditions: Homo sapiens, MOLM-14, 48 h, 48 hours incubation;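 further: MEIS1 transcript levels read by probe hybridization and normalized to RPL28 mRNA, with IC50 fitted to fold changes across a rising compound concentration series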
[1] = molecular target: menin/MLL (terbium chelate-labeled menin, FITC-MBM1 peptide) (Homo sapiens (Human), UniProt O00255); experiment: Menin/MLL homogenous time-resolved fluorescence (HTRF) assay; assay type: binding; conditions: HTRF-30 min incubation IC50, 30 min incubation;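 further: IC50 from percent inhibition of HTRF signal, normalized between wells without competitor and wells with a saturating competitor that displaces FITC-MBM1 from His-tagged menin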
Chain of menin/MLL (terbium chelate-labeled menin, FITC-MBM1 peptide) (O00255 other isoform, or with tags, fused parts or gaps): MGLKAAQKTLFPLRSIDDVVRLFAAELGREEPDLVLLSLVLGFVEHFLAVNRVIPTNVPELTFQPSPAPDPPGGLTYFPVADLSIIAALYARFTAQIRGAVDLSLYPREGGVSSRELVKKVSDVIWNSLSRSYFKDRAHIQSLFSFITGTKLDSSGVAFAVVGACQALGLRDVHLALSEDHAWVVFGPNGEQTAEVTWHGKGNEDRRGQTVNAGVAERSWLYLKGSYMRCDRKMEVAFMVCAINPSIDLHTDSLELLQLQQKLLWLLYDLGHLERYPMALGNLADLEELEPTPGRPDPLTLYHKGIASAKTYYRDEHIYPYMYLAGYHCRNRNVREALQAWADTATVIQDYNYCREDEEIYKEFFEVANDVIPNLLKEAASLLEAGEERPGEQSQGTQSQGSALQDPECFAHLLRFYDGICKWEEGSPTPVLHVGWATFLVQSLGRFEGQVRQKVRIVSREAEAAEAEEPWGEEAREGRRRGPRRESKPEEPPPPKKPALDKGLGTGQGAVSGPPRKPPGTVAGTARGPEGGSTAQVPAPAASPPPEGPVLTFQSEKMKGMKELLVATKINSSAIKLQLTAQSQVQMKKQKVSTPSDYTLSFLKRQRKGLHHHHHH

OCI-AML3 cells = experiment: Proliferation assay (spheroid growth, 8 days), OCI-AML3; assay type: cell-based, human; conditions: Homo sapiens, OCI-AML-3, […], OCI-AML3, 8 days
How it was run: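 Spheroid size on day 8, taken as live-cell imaging confluence, served as readout after 8-day compound exposure (0.3% DMSO, 37 °C, 5% CO2) in round-bottom low-attachment wells. Seeding was 200 cells for MOLM14 and OCI-AML3, 300 for KO-52. IC50 came from % effect versus DMSO and reference baseline, fitted with variable slope.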

KO-52 cells = experiment: Proliferation assay (spheroid growth, 8 days), KO-52 control cell line; assay type: cell-based, human; conditions: Homo sapiens, […], read-out: spheroid assay_OneTime KO-52 IC50
Procedure: The anti-proliferative effect of menin/MLL protein/protein interaction inhibitor test compounds was assessed in human leukemia cell lines. The cell line MOLM14 harbors a MLL translocation and expresses the MLL fusion protein MLL-AF9, respectively, as well as the wildtype protein from the second allele. OCI-AML3 cells that carry the NPM1c gene mutation were also tested. […] KO-52 was used as a control cell line containing two MLL (KMT2A) wildtype alleles in order to exclude compounds that display general cytotoxic effects.
KO-52 and OCI-AML3 cell lines were propagated in alpha-MEM (Sigma Aldrich) supplemented with 20% heat-inactivated fetal bovine serum (HyClone), 2 mM L-glutamine (Sigma Aldrich) and 50 μg/ml gentamycin (Gibco).
In order to assess the anti-proliferative effects, 200 MOLM14 cells, 200 OCI-AML3 cells or 300 KO-52 cells were seeded in 200 μl media per well in […] round bottom, ultra-low attachment plates (Costar, catalogue number 7007). Cell seeding numbers were chosen based on growth curves to ensure linear growth throughout the experiment. Test compounds were added at different concentrations and the DMSO content was normalized to 0.3%. Cells were incubated for 8 days at 37° C. and 5% CO2. Spheroid like growth was measured in real-time by live-cell imaging (IncuCyteZOOM, Essenbio, 4× objective) acquiring images at day 8. Confluence (%) as a measure of spheroid size was determined using an integrated analysis tool.
In order to determine the effect of the test compounds over time, the confluence in each well as a measure of spheroid size, was calculated. Confluence of the highest dose of a reference compound was used as baseline for the LC (Low control) and the confluence of DMSO treated cells was used as 0% cytotoxicity (High Control, HC).
GraphPad Prism(version 7.00) was used to calculate the IC50. Dose-response equation was used for the plot of % Effect vs Log 10 compound concentration with a variable slope and fixing the maximum to 100% and the minimum to 0%.

MOLM14 cells = experiment: Proliferation assay (spheroid growth, 8 days), MOLM14; assay type: cell-based, human; conditions: Homo sapiens, MOLM-14, […], MOLM14, 8 days; read-out: spheroid assay_OneTime MOLM14 IC50;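 further: spheroid size read as confluence by live-cell imaging, compounds added at a range of concentrations with 0.3% DMSO, DMSO-treated wells = 0%, highest reference dose = low control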

Structure (SMILES)	IC50 (MEIS1 mRNA)	IC50 [1]	IC50 (OCI-AML3 cells)	IC50 (KO-52 cells)	IC50 (MOLM14 cells)
CC(C)[C@H](CCCN(C)C)N1CC2(CCN(c3ncnnc3Oc3ccc(F)cc3C(=O)N(C(C)C)C(C)C)C2)C1 (single isomer, unassigned) [Compound 103, (*S)-2-((5-(2-(6-(dimethylamino)-2-methylhexan-3-yl)-2,6-diazaspiro[3.4]octan-6-yl)-1,2,4-triazin-6-yl)oxy)-5-fluoro-N,N-diisopropylbenzamide fumarate]	420 nM	2.43 nM	1360 nM	> 15000 nM	290 nM
CCN(C(=O)c1cc(F)ccc1Oc1nncnc1N1CCC2(C1)CN([C@H](CCCN(C)C(C)C)C(C)C)C2)C(C)C (single isomer, unassigned) [Compound 122, (*R)—N-ethyl-5-fluoro-N-isopropyl-2-((5-(2-(6-(isopropyl(methyl)amino)-2-methylhexan-3-yl)-2,6-diazaspiro[3.4]octan-6-yl)-1,2,4-triazin-6-yl)oxy)benzamide fumarate]	34 nM	0.065 nM	150 nM	> 15000 nM	21 nM
CCN(C(=O)c1cc(F)ccc1Oc1nncnc1N1CCC2(C1)CN([C@@H](CCCN(C)C(C)C)C(C)C)C2)C(C)C (single isomer, unassigned) [Compound 123, (*S)—N-ethyl-5-fluoro-N-isopropyl-2-((5-(2-(6-(isopropyl(methyl)amino)-2-methylhexan-3-yl)-2,6-diazaspiro[3.4]octan-6-yl)-1,2,4-triazin-6-yl)oxy)benzamide fumarate]	> 1000 nM	3.98 nM	3550 nM	> 15000 nM	> 940 nM
CCCN(C)CCC[C@H](C(C)C)N1CC2(CCN(c3ncnnc3Oc3ccc(F)cc3C(=O)N(CC)C(C)C)C2)C1 (single isomer, unassigned) [Compound 127, (*R)—N-ethyl-5-fluoro-N-isopropyl-2-((2-methyl-6-(methyl(propyl)amino)hexan-3-yl)-2,6-diazaspiro[3.4]octan-6-yl)-1,2,4-triazin-6-yl)oxy)benzamide fumarate]	44 nM	0.089 nM	140 nM	11300 nM	26 nM
CCCN(C)CCC[C@@H](C(C)C)N1CC2(CCN(c3ncnnc3Oc3ccc(F)cc3C(=O)N(CC)C(C)C)C2)C1 (single isomer, unassigned) [Compound 128, (*S)—N-ethyl-5-fluoro-N-isopropyl-2-((5-(2-(2-methyl-6-(methyl(propyl)amino)hexan-3-yl)-2,6-diazaspiro[3.4]octan-6-yl)-1,2,4-triazin-6-yl)oxy)benzamide fumarate]	~680 nM	1.64 nM	1990 nM	11400 nM	630 nM
CCN(C)CCC[C@@H](C(C)C)N1CC2(CCN(c3ncnnc3Oc3ccc(F)cc3C(=O)N(CC)C(C)C)C2)C1 (single isomer, unassigned) [Compound 133, (*S)—N-ethyl-2-((5-(2-(6-(ethyl(methyl)amino)-2-methylhexan-3-yl)-2,6-diazaspiro[3.4]octan-6-yl)-1,2,4-triazin-6-yl)oxy)-5-fluoro-N-isopropylbenzamide fumarate]	> 1000 nM	2.13 nM	3500 nM	> 15000 nM	> 940 nM
CC(C)[C@@H](CCCN(C)CCC(=O)N(C)C)N1CC2(CCN(c3ncnnc3Oc3ccc(F)cc3C(=O)N(C(C)C)C(C)C)C2)C1 (single isomer, unassigned) [Compound 145, (*R)-2-((5-(2-(6-((3-(dimethylamino)-3-oxopropyl)(methyl)amino)-2-methylhexan-3-yl)-2,6-diazaspiro[3.4]octan-6-yl)-1,2,4-triazin-6-yl)oxy)-5-fluoro-N,N-diisopropylbenzamide fumarate]	21 nM	0.07 nM	110 nM	> 15000 nM	14 nM
CCN(C(=O)c1cc(F)ccc1Oc1nncnc1N1CCC2(C1)CN([C@H](CCCN(C)C[C@H](COC)OC)C(C)C)C2)C(C)C (single isomer, unassigned) [Compound 176, 2-((5-(2-((R)-6-(((*R)-2,3-dimethoxypropyl)(methyl)amino)-2-methylhexan-3-yl)-2,6-diazaspiro[3.4]octan-6-yl)-1,2,4-triazin-6-yl)oxy)-N-ethyl-5-fluoro-N-isopropylbenzamide fumarate]	17 nM	0.13 nM	120 nM	> 15000 nM	38 nM
CCN(C(=O)c1cc(F)ccc1Oc1nncnc1N1CCC2(C1)CN([C@H](CCCN(C)C[C@@H](COC)OC)C(C)C)C2)C(C)C (single isomer, unassigned) [Compound 177, 2-((5-(2-((R)-6-(((*S)-2,3-dimethoxypropyl)(methyl)amino)-2-methylhexan-3-yl-2,6-diazaspiro[3.4]octan-6-yl)-1,2,4-triazin-6-yl)oxy)-N-ethyl-5-fluoro-N-isopropylbenzamide fumarate]	7.3 nM	0.062 nM	64 nM	> 15000 nM	24 nM
CCN(C(=O)c1cc(F)ccc1Oc1nncnc1N1CCC2(C1)CN([C@H](CCCN(C)[C@H](C)CC(=O)N(C)C)C(C)C)C2)C(C)C (single isomer, unassigned) [Compound 184, 2-((5-(2-((R)-6-(((*R)-4-(dimethylamino)-4-oxobutan-2-yl)(methyl)amino)-2-methylhexan-3-yl)-2,6-diazaspiro[3.4]octan-6-yl)-1,2,4-triazin-6-yl)oxy)-N-ethyl-5-fluoro-N-isopropylbenzamide fumarate]	110 nM	~0.36 nM	190 nM	3000 nM	230 nM
CCN(C(=O)c1cc(F)ccc1Oc1nncnc1N1CCC2(C1)CN([C@H](CCCN(C)[C@@H](C)CC(=O)N(C)C)C(C)C)C2)C(C)C (single isomer, unassigned) [Compound 185, 2-((5-(2-((R)-6-(((*S)-4-(dimethylamino)-4-oxobutan-2-yl)(methyl)amino)-2-methylhexan-3-yl)-2,6-diazaspiro[3.4]octan-6-yl)-1,2,4-triazin-6-yl)oxy)-N-ethyl-5-fluoro-N-isopropylbenzamide fumarate]	44 nM	0.2 nM	61 nM	1700 nM	79 nM
CCN(C(=O)c1cc(F)ccc1Oc1nncnc1N1CCC2(C1)CN([C@H](CCCN(C)C[C@@H](C)C(=O)N(C)C)C(C)C)C2)C(C)C (single isomer, unassigned) [Compound 188]	34 nM	0.43 nM	340 nM	> 15000 nM	55 nM
CCN(C(=O)c1cc(F)ccc1Oc1nncnc1N1CCC2(C1)CN([C@H](CCCN(C)C[C@H](C)C(=O)N(C)C)C(C)C)C2)C(C)C (single isomer, unassigned) [Compound 189, 2-((5-(2-((R)-6-(((*S)-3-(dimethylamino)-2-methyl-3-oxopropyl)(methyl)amino)-2-methylhexan-3-yl)-2,6-diazaspiro[3.4]octan-6-yl)-1,2,4-triazin-6-yl)oxy)-N-ethyl-5-fluoro-N-isopropylbenzamide fumarate]	19 nM	0.22 nM	190 nM	> 15000 nM	30 nM
CC(C)[C@@H](CCCN(C)[C@H](C)CC(N)=O)N1CC2(CCN(c3ncnnc3Oc3ccc(F)cc3C(=O)N(C(C)C)C(C)C)C2)C1 (single isomer, unassigned) [Compound 199, 2-((5-(2-((*R)-6-(((R)-4-amino-4-oxobutan-2-yl)(methyl)amino)-2-methylhexan-3-yl)-2,6-diazaspiro[3.4]octan-6-yl)-1,2,4-triazin-6-yl)oxy)-5-fluoro-N,N-diisopropylbenzamide fumarate]	~260 nM	0.13 nM	1910 nM	> 15000 nM	460 nM

— patent publication US12473295B2, “Substituted straight chain spiro derivatives” (Janssen Pharmaceutica NV, priority 2019, dated 2025)
